According to patent publication US7410975B2, “Small molecule toll-like receptor (TLR) antagonists” (Coley Pharmaceutical Group, Inc., priority 2003, dated 2008):
Like-named read-outs stand apart in the source and are kept apart here.

Experiments:
Format in all cases: cell-based
[1] = target: T1, human TLR9 (hTLR9) (Homo sapiens, UniProt Q9NR96)
T1 construct: expressed in transfected cells
T1 sequence (Q9NR96 26-1032): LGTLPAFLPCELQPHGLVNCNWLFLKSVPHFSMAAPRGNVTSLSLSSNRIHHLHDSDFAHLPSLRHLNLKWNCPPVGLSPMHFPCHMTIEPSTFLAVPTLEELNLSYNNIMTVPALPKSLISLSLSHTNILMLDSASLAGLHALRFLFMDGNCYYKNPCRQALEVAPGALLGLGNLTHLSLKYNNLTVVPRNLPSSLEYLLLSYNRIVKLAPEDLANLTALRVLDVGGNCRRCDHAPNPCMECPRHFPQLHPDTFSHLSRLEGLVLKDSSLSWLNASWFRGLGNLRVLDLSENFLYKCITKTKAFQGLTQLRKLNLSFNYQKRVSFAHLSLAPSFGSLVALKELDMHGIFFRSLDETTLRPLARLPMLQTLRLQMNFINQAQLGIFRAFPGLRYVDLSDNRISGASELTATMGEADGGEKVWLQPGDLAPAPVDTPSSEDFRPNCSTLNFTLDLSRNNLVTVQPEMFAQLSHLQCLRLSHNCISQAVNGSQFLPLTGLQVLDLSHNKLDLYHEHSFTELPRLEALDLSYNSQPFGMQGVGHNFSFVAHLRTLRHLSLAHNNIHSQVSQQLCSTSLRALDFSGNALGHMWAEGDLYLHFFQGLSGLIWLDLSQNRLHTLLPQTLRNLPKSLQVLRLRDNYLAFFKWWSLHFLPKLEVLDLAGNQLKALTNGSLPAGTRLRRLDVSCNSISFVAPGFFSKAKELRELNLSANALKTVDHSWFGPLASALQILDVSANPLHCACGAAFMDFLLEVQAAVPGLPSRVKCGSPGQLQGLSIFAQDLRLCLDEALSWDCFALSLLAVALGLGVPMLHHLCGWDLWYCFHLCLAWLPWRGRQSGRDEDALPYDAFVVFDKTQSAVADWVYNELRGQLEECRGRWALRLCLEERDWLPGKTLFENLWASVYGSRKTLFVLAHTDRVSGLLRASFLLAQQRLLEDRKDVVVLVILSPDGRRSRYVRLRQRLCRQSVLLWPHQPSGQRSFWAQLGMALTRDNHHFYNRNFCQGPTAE
Method: Stably co-transfecting the human TLR9 receptor (hTLR9) and an NF-κB promoter-driven luciferase gene into HEK-293 cells created the cell line hTLR9-NFkB-293. hTLR9-NFkB-293 cells were counted and seeded at 1.5×10^4 cells per well in 96-well cell culture plates one day before assaying and cultured at 37° C./5% CO2. The day of the assay, antagonist was added at 50 μM, 5.0 μM or 0.5 μM. The cells were then stimulated with the EC50 dose of the TLR9 agonist, CpG-ODN 2006, and cultured for 16 h in a humidified incubator at 37° C. The culture supernatant was removed and the cells were treated with lysis buffer and stored at −80° C. before measuring luciferase activity. The luciferase readout was measured according to manufacturer's instructions using a luciferase assay system available from Promega, USA. The antagonist dose listed in Table 18 is the minimum effective dose (μM) for blockade of the TLR9 agonist. As evident from the results presented in Table 18, the minimum effective dose (μM) for blockade of the TLR9 agonist was 0.5 μM or 5 μM for all of the compounds tested, as measured by this three-point assay.

[2] = target: T2, hTLR9 (Homo sapiens, UniProt Q9NR96); experiment: hTLR9 antagonism IC50, hTLR9-NFkB-293 cells, luciferase readout, CpG-ODN 2006 (Examples 8 and 18, Tables 19 and 20); conditions: for inhibition of TLR9 signaling in vitro (in words): CpG-ODN 2006
T2 construct: expressed in transfected cells
T2 sequence (Q9NR96 26-1032): T1 sequence (Q9NR96 26-1032)
Method: (§1) hTLR9-NFkB-293 cells were counted and seeded at 1.5×10^4 cells per well in 96-well cell culture plates one day before assaying and cultured at 37° C./5% CO2, as described in Example 7. The day of the assay, antagonist was added at varying concentrations starting at 50 μM with a 1/5 to 1/6 dilution for 7 steps. The cells were then stimulated with the EC50 dose of the TLR9 agonist, CpG-ODN 2006, and cultured for 16 h in a humidified incubator at 37° C. The culture supernatant was removed and the cells were treated with lysis buffer and stored at −80° C. before measuring luciferase activity as described in Example 7. […] Results shown in Table 19 under the heading hTLR9 are the IC50 dose (μM) for blockade of a CpG ODN-generated signal in hTLR9-NFkB-293 cells.
as §1, with “20” for “19”

[3] = target: T1, human TLR9 (hTLR9); experiment: Antagonist screen, hTLR9-NFκB-293 cells, 6× NF-κB-luciferase reporter, with EC50 of CpG ODN 2006; conditions: compound at 0.5, 5, 50 μg/ml; EC50 concentration of CpG ODN 2006; 16 h; NF-κB-luciferase
Method: Candidate small molecules for initial screening were obtained from a commercially available library of 880 off-patent small molecules selected for structural diversity and proven bioavailability in humans (Prestwick Chemical Library). […] Results were measured as fold induction over baseline luciferase activity measured in the absence of ODN 2006 and compared to fold induction over baseline in the presence of the EC50 concentration of ODN 2006 alone. […] Additional screening was performed in like manner using additional small molecules selected from another library or specifically prepared for this purpose.
The method is described in greater detail as follows. The cells for each individual cell clone (hTLR3-NFκB-293, hTLR7-NFκB-293, hTLR8-NFκB-293 and hTLR9-NFκB-293) were counted and seeded one day before the stimulation at 1.5×10^4 cells per well in 96-well cell culture plates. To become adherent the cells were incubated after seeding overnight at 37° C. in 5% CO2 humidified air.
The screen for each compound was performed at the same time for all of the receptors TLR3, TLR7, TLR8 and TLR9. Up to fifteen test compounds, each assayed in duplicate at each of three different final concentrations (0.5 μg/ml, 5 μg/ml, and 50 μg/ml), were used for 16 h cell stimulation on a single multiwell culture plate. A 4× final concentration master plate was created to prepare the different test compounds before they were added to the cells.
Controls were added as duplicates individually for each cell clone on the cell culture plate. Positive controls were used as follows (final concentrations): 50 μg/ml poly(I:C) for hTLR3-NFκB-293; 8 μM resiquimod (R848) for hTLR7-NFκB-293; 30 μM R848 for hTLR8-NFκB-293; and 2.5 μM CpG-ODN 2006 for hTLR9-NFκB-293. Media alone was used as negative control. After addition of controls and small molecules, the cell clones were additionally stimulated with the EC50 concentration of the appropriate receptor-specific ligand.
The mean value of wells H2 and H5 (each with cells and EC50 concentration of the appropriate receptor-specific ligand) divided by the mean of wells H3 and H6 (each with cells alone) yielded the baseline response (i.e., fold induction of luciferase activity) to EC50 concentration of the appropriate receptor-specific ligand.
After 16 h stimulation the supernatant was removed and the cells treated with lysis buffer and stored at −80° C. before measuring.
For each screen result a graphical documentation was performed.
The baseline result (measured with addition of the EC50 concentration of the receptor-specific ligand) for each cell culture plate was measured as described above. Antagonistic effects were measured by down regulation compared to the baseline. Antagonists were scored as follows: • 13: compounds for which there was clear down regulation at 0.5 μg/ml, 5 μg/ml, and 50 μg/ml; • 12: compounds for which there was clear down regulation at 5 μg/ml and 50 μg/ml; • 11: compounds for which there was clear down regulation only at 50 μg/ml; • —: compounds for which there was no clear down regulation even at 50 μg/ml. Agonists

[4] = three-point assay at 50, 5.0 or 0.5 μM, EC50 dose of CpG-ODN 2006, 16 h
[5] = hTLR9-NFkB-293 cells, EC50 dose of CpG-ODN 2006, 16 h, Table 19 quinazolines, read-out: hTLR9 (IC50 dose for blockade of a CpG ODN-generated signal)
[6] = hTLR9-NFkB-293 cells, EC50 dose of CpG-ODN 2006, 16 h, Table 20 diarylmethanes, read-out: hTLR9 (IC50 dose for blockade of a CpG ODN-generated signal)

Cc1ccc2nc3c(c(N)c2c1)CCN3c1ccccc1 [1552(127), 6-Methyl-1-phenyl-2,3-dihydro-1H-pyrrolo[2,3-b]quinolin-4-ylamine]
antagonist dose (minimum effective dose for blockade of the TLR9 agonist) [1, 4]: 0.5 µM

CN(C)c1cc(N)c2ccccc2n1 [1553(128), N*2*,N*2*-Dimethyl-quinoline-2,4-diamine]
antagonist dose (minimum effective dose for blockade of the TLR9 agonist) [1, 4]: 0.5 µM

CN(C)CCOc1nc(-c2ccccc2)nc2ccccc12 [CMZ 203-45, Dimethyl-[2-(2-phenyl-quinazolin-4-yloxy)-ethyl]-amine]
IC50 [2, 5]: 29 µM

CN1CCN(c2ccc(C(O)c3ccccc3)cc2)CC1 (stereo not shown) [CMZ 203-84]
IC50 [2]: 25.6 µM | inhibition of TLR9 signaling in vitro (in words) ([2]; hTLR9-NFkB-293 cells): found to inhibit TLR9 signaling

CN(C)CCOC(c1ccccc1)c1ccc(N2CCN(C)CC2)cc1 (stereo not shown) [CMZ 203-85]
inhibition of TLR9 signaling in vitro (in words) ([2]; hTLR9-NFkB-293 cells): found to inhibit TLR9 signaling | IC50 [2, 6]: 0.372 µM

CN1CCN(c2ccc(-c3nc(NCCN4CCOCC4)c4ccccc4n3)cc2)CC1 [CMZ 203-87]
IC50 [2, 5]: 0.02 µM

CN1CCN(c2ccc(Cc3ccccc3)cc2)CC1 [CMZ 203-88-1]
IC50 [2]: 12 µM | inhibition of TLR9 signaling in vitro (in words) ([2]; hTLR9-NFkB-293 cells): found to inhibit TLR9 signaling

CN1CCN(c2ccc(/C(=N\O)c3ccccc3)cc2)CC1 [CMZ 203-88]
inhibition of TLR9 signaling in vitro (in words) ([2]; hTLR9-NFkB-293 cells): found to inhibit TLR9 signaling | IC50 [2, 6]: 11.6 µM

CN(C)CCNC(c1ccccc1)c1ccc(N2CCN(C)CC2)cc1 (stereo not shown) [CMZ 203-89]
inhibition of TLR9 signaling in vitro (in words) ([2]; hTLR9-NFkB-293 cells): found to inhibit TLR9 signaling | IC50 [2, 6]: 0.241 µM

COc1cc2nc(N3CCN(c4ccccc4)CC3)nc(N)c2cc1OC [CMZ 203-90]
IC50 [2, 5]: 5.43 µM

CN1CCN(c2ccc(C(c3ccccc3)N3CCN(C)CC3)cc2)CC1 (stereo not shown) [CMZ 203-91]
inhibition of TLR9 signaling in vitro (in words) ([2]; hTLR9-NFkB-293 cells): found to inhibit TLR9 signaling | IC50 [2, 6]: 3.95 µM

CN(C)CCCN1c2ccccc2CCc2ccccc21.Cl [compound 72, Imipraminehydrochloride]
hTLR9 (inhibitory effect, antagonist score) [3]: 13 (compounds for which there was clear down regulation at 0.5 μg/ml, 5 μg/ml, and 50 μg/ml)

Cl.Nc1c2c(nc3ccccc13)CCCC2 [compound 329, 1,2,3,4-Tetrahydro-acridin-9-ylamine Tacrine hydrochloridehydrate, reference compound]
antagonist dose (minimum effective dose for blockade of the TLR9 agonist) [1]: 5.0 µM

Nc1c2c(nc3ccccc13)CCCCC2 [compound 936, 7,8,9,10-Tetrahydro-6H-cyclohepta[b]quinolin-11-ylamine]
antagonist dose (minimum effective dose for blockade of the TLR9 agonist) [1, 4]: 0.5 µM

Nc1c2c(nc3ccccc13)CCC2 [compound 1061, 2,3-Dihydro-1H-cyclopenta[b]quinolin-9-ylamine]
antagonist dose (minimum effective dose for blockade of the TLR9 agonist) [1, 4]: 5.0 µM

CC1(C)C=Cc2c(nc3ccccc3c2N)C1 [compound 1201, 3,3-Dimethyl-3,4-dihydro-acridin-9-ylamine]
antagonist dose (minimum effective dose for blockade of the TLR9 agonist) [1, 4]: 0.5 µM

Cc1cc(C)c2c(N)c3cccc(C)c3nc2n1 [compound 1227, 2,4,9-Trimethyl-benzo[b][1,8]naphthyridin-5-ylamine]
antagonist dose (minimum effective dose for blockade of the TLR9 agonist) [1, 4]: 5.0 µM

CC1(C)Cc2nc3ccccc3c(N)c2C(O)C1 (stereo not shown) [compound 1286, 9-Amino-3,3-dimethyl-1,2,3,4-tetrahydro-acridin-1-ol]
antagonist dose (minimum effective dose for blockade of the TLR9 agonist) [1, 4]: 5.0 µM

Cc1ccc2nc3nc4c(C)cccc4c(N)c3cc2c1 [compound 1595, 2,7-Dimethyl-dibenzo[b,g][1,8]naphthyridin-11-ylamine]
antagonist dose (minimum effective dose for blockade of the TLR9 agonist) [1, 4]: 0.5 µM

CCOc1ccc2nc3cc(NCc4ccco4)ccc3c(N)c2c1 [compound 1674, 7-Ethoxy-N*3*-furan-2-ylmethyl-acridine-3,9-diamine]
antagonist dose (minimum effective dose for blockade of the TLR9 agonist) [1, 4]: 5.0 µM

Cc1cc(C)c2c(N)c3ccccc3nc2n1 [compound 1690, 2,4-Dimethyl-benzo[b][1,8]naphthyridin-5-ylamine]
antagonist dose (minimum effective dose for blockade of the TLR9 agonist) [1, 4]: 0.5 µM

Cc1cc(C)c2c(N)c3cc(F)ccc3nc2n1 [compound 1727, 7-Fluoro-2,4-dimethyl-benzo[b][1,8]naphthyridin-5-ylamine]
antagonist dose (minimum effective dose for blockade of the TLR9 agonist) [1, 4]: 0.5 µM
